Assay results as given in patent publication US6761896B1, “Skin cosmetic care system and method” (Unilever Home & Personal Care USA, division of Conopco, Inc., priority 1998, dated 2004).
Values joined by “and” are separate entries in the source; they are usually repeats but may differ in a detail not shown here. Identical values can stand only once.

Columns and labels:
Type in all cases: cell-based
MelanoDerm MEL-300 = assay: Pigmentation in MelanoDerm Living Skin Equivalent (blue colour image analysis); details: for effect of South pole magnetism on skin depigmenting action: Kojic acid 500, Yohimbine 25, Ascorbic acid 285 micro-molar, magnet vs no magnet, p<0.05; for Pigmentation Reduction Magnet % South Pole (B): day 14, South Pole magnet; for Pigmentation Reduction Magnet % South Pole (B) / Pigmentation Reduction % No Magnet (A): individual tissues; for Pigmentation Reduction % No Magnet (A): day 14, no magnet, relative to untreated control
Experimental: Kojic acid, Vitamin C, and Yohimbine were examined for their ability to reduce pigmentation in the MelanoDerm Living Skin Equivalent in the presence and absence of South Pole magnetism. After 14 days of incubation, during which one series of tissues was exposed to South Pole magnetism and an equivalent duplicate series was not, the melanin color formed in each tissue was estimated using primary color image analysis.
MelanoDerm™ MEL-300, a 3-dimensional epidermal model containing functioning melanoctyes produced by MatTek Corporation, Ashland, Mass., was the tissue used for this experiment. Each MEL-300 kit has 24 tissue pieces.
Three depigmenting actives were added to the Melanoderm incubation medium at the following final concentrations,
Two (2) MEL-300 kits, each with 24 tissue pieces, were prepared with identical application of actives. Each active, Vitamin C, Kojic acid & Yohimbine, was applied to the incubation medium of 5 tissues at the concentrations specified above. 4 tissues were untreated. […] One Mel-300 kit prepared as above was placed on the 6 inch×4 inch South Pole surface of the Ferrimag magnet for incubation, and the identical second Mel-300 kit was incubated at the opposite side (top left vs bottom right) of the same incubator and additionally shielded from the magnet.
The tissues were incubated for 14 days in maintenance medium at 37 degrees centigrade and a constant atmosphere (5%CO2). The maintenance medium and actives were replenished 4 times weekly. At 7 days, 2 tissues were removed from each active and control group leaving 3 tissues in each group (2 in the untreated group) for day 14 evaluation.
At the day 14 completion of the experiment the tissue pieces of each Mel-300 incubation plate were photographed from above. Each tissue appeared as a small disc varying in brown color intensity. The photographs of two Mel-300 incubation plates (one incubated on the magnet and one without magnetism) were scanned into a Pentium II computer and the color primary color content of each disc was measured using a color analysis macro within an Optimas image quantification software package. The blue color content was used as an index of melanin pigment (preliminary experiments confirmed that the principle primary color of melanin is blue using this image analysis system—this was established by comparing brown freckles and age spots with surrounding non-pigmented skin in color photographs of Caucasian human skin). The blue color intensity scale is 0-255 where 0 is saturation with blue color and 255 is total absence of blue color. The actual blue scale reading of each tissue sample was converted to a % blue value by computing it's proportion of the full range of 0to 255.

IL1-a = IL1-a release by MelanoDerm Living Skin Equivalents (Elisa); parameters: IL1-a(i) / IL1-a(ii): unit not given here; details: 0.5% phytic acid; for IL1-a release % Untreated: 24 hr; for IL1-a(i): first determination; for IL1-a(i) / IL1-a(ii): individual tissues; for IL1-a Mean: mean of (i) and (ii); for IL1-a(ii): second determination 7 days later
Experimental: (§1) Phytic acid (0.5%) was examined for its effect on cytokine release by MelanoDerm Living Skin Equivalents in the presence and absence of South Pole magnetism. After 24 hours incubation, during which one set of tissues was exposed to South Pole magnetism and an equivalent duplicate series was not, the culture medium was assayed for IL1-a and PGE-2. In the absence of magnetism there was a significant increase in medium concentration of both IL1-a and PGE-2. These increases were suppressed in the presence of South pole magnetism. Living Skin Equivalent: MelanoDermTM MEL-300, a 3-dimensional epidermal model containing functioning melanoctyes produced by MatTek Corporation, Ashland, Mass., was the tissue used for this experiment. Fifty (50) microliters of phytic acid solution (0.5%) was applied to the stratum corneum surface of 4 MEL-300 tissues. Eight (8) untreated MEL-300 tisues served as controls. Half the tissues (i.e. 2 phytic acid and 4 untreated controls) were placed on the 6 inch×4 inch South Pole surface of the […] magnet for 24 hours incubation (37 degrees centigrade; 5% CO2). After the 24 hr incubation the tissues were removed from the incubation medium and assayed for MTT to confirm tissue viability. The incubation medium was assayed for content of cytokines IL1-a and PGE-2. The tissue samples were refrigerated and a second determination of cyotkines was made 7 days later. The cytokine assays were performed using commercially available 96 well Elisa kits.

MelanoDerm tissue = MelanoDerm tissue viability by MTT; details: 0.5% in water, preliminary experiment
Experimental: Phytic acid was tested at a concentration of 0.5% in water.

PGE-2 = PGE-2 release by MelanoDerm Living Skin Equivalents (Elisa); parameters: PGE-2(i) / PGE-2 (ii): unit not given beside the values; details: 0.5% phytic acid; for PGE-2 release % Untreated: 24 hr; for PGE-2(i): first determination; for PGE-2(i) / PGE-2 (ii): individual tissues; for PGE-2 Mean: mean of (i) and (ii); for PGE-2 (ii): second determination 7 days later
Experimental: as §1

human sebocytes = assay: Lipid production by sebocytes in vitro (14C-acetate incorporation); details: for % Reduction: vs control of same plate
Experimental: This example measured the effect of various actives in combination with magnets on lipid production by sebocytes in vitro.
Secondary cultures of human sebocytes obtained from an adult […] were grown in the inner 24 wells of 48-well tissue culture plates (Costar Corp.; Cambridge, Mass.) until confluent. Sebocyte growth medium consisted of Clonetics Keratinocyte Basal Medium (KBM) supplemented with 14 ug/ml bovine pituitary extract, 0.4 ug/ml hydrocortisone, 5 ug/ml insulin, 10 ng/ml epidermal growth factor, 1.2×10^−10 M cholera toxin, 100 units/ml penicillin, and 100 ug/ml streptomycin. All cultures were incubated at 37° C. in the presence of 7.5% CO2. Medium was changed three times per week.
On the first day of experimentation, the growth medium was removed and the sebocytes washed three times with sterile Dulbecco's Modified Eagle Medium (DMEM; phenol red free). Fresh DMEM was added to each sample (triplicates) with 5 microliter of test agent solubilized in ethanol (312.5 uM iso-tridecylsalicylate or 10 uM Retinyl Linoleate; 6 replicates for each sample). Controls consisted of addition of ethanol alone. Each magnet was sandwiched between 2 plates for 24 hours. For 2 of the sebocyte plates, the configuration was North magnet pointing up, for 2 other plates, the configuration was reversed (South magnet up), and one plate served as a control (no presence of magnets).
After 24 hours, addition of ^14C-acetate buffer (5 mM final concentration, 56 mCi/mmol specific activity) was performed. Sebocytes were then returned to the incubator for four hours after which each culture was rinsed three times with phosphate buffered saline to remove unbound label. Radioactive label remaining in the sebocytes was harvested and counted using a Beckman scintillation counter.

[1] = No Magnetism, increase over untreated
[2] = 10 uM Retinyl Linoleate, Plate A: No Magnet Presence
[3] = 10 uM Retinyl Linoleate, Plate B: North Magnet Up (Top Plate)
[4] = 10 uM Retinyl Linoleate, Plate C: North Magnet Up (Bottom Plate)
[5] = 10 uM Retinyl Linoleate, Plate D: South Magnet Up (Top Plate)
[6] = 10 uM Retinyl Linoleate, Plate E: South Magnet Up (Bottom Plate)
[7] = 312.5 uM TDS, Plate A: No Magnet Presence
[8] = 312.5 uM TDS, Plate B: North Magnet Up (Top Plate)
[9] = 312.5 uM TDS, Plate C: North Magnet Up (Bottom Plate)
[10] = 312.5 uM TDS, Plate D: South Magnet Up (Top Plate)
[11] = 312.5 uM TDS, Plate E: South Magnet Up (Bottom Plate)

Which “effect of South pole magnetism on skin depigmenting action” value (“effect of South pole magnetism” for short) (MelanoDerm MEL-300) does the source give for `O=c1cc(CO)occ1O` [Kojic Acid, Kojic acid] here?
Its value is “enhances”.

And the “Mean A-B (Mean Difference)” value (MelanoDerm MEL-300; Kojic acid 500 micro-molar)?
The value was −2.06.

And the “Pigmentation Reduction Magnet % South Pole (B)” value (MelanoDerm MEL-300; Kojic acid 500 micro-molar)?
Its value is −9.21% and −10.02% and 4.75%.

And the “Pigmentation Reduction % No Magnet (A)” value (MelanoDerm MEL-300; Kojic acid 500 micro-molar)?
Its value is −4.77% and −8.72% and −4.27%.

For `O=P(O)(O)O[C@H]1[C@H](OP(=O)(O)O)[C@@H](OP(=O)(O)O)[C@H](OP(=O)(O)O)[C@@H](OP(=O)(O)O)[C@H]1OP(=O)(O)O` [Phytic acid], which “IL1-a release % Untreated” value (IL1-a; + South Pole Magnetism, increase over untreated plus magnet) is on record?
The value was 16%.

And the “IL1-a release % Untreated” value (IL1-a; [1])?
The value was 99%.

What about the “IL1-a(i)” value (IL1-a; South Pole magnet) of the same compound?
Its value is 239.1 and 108.9.

What about the “IL1-a Mean” value (IL1-a; South Pole magnet) of the same compound?
Its value is 151.2 +/− 64.

What about the “IL1-a(ii)” value (IL1-a; South Pole magnet) of the same compound?
Its value is 158.2 and 98.4.

What about the “IL1-a(i)” value (IL1-a; no magnet) of the same compound?
The value was 285.3 and 222.9.

And the “IL1-a Mean” value (IL1-a; no magnet)?
Its value is 209 +/− 61.

And the “IL1-a(ii)” value (IL1-a; no magnet)?
The value was 186.2 and 141.1.

And the “toxicity to MelanoDerm tissue (tissue viability by MTT)” value (MelanoDerm tissue)?
The value was “non-toxic”.

What about the “PGE-2 release % Untreated” value (PGE-2; + South Pole Magnetism, change over untreated plus magnet) of the same compound?
Its value is −2%.

And the “PGE-2 release % Untreated” value (PGE-2; [1])?
Its value is 191%.

And the “PGE-2(i)” value (PGE-2; South Pole magnet)?
The value was 2056 and 2387.

And the “PGE-2 Mean” value (PGE-2; South Pole magnet)?
The value was 2093 +/− 208.

What about the “PGE-2 (ii)” value (PGE-2; South Pole magnet) of the same compound?
Its value is 1899 and 2030.

What about the “PGE-2(i)” value (PGE-2; no magnet) of the same compound?
Its value is 5326 and 4673.

And the “PGE-2 Mean” value (PGE-2; no magnet)?
The value was 5136 +/− 421.

And the “PGE-2 (ii)” value (PGE-2; no magnet)?
The value was 5621 and 4923.

For `CCCCC/C=C\C/C=C\CCCCCCCC(=O)OC/C=C(C)/C=C/C=C(C)/C=C/C1=C(C)CCCC1(C)C` [Retinyl Linoleate], which “DPMs (AVG)” value (human sebocytes; [2]) is on record?
The value was 4198.1 DPMs.

What about the “% Reduction” value (human sebocytes; [2]) of the same compound?
Its value is 3.9%.

And the “DPMs (AVG)” value (human sebocytes; [3])?
Its value is 4123.0 DPMs.

And the “% Reduction” value (human sebocytes; [3])?
Its value is 6.5%.

And the “DPMs (AVG)” value (human sebocytes; [4])?
Its value is 3660.1 DPMs.

What about the “% Reduction” value (human sebocytes; [4]) of the same compound?
The value was 1.8%.

What about the “DPMs (AVG)” value (human sebocytes; [5]) of the same compound?
Its value is 3619.4 DPMs.

And the “% Reduction” value (human sebocytes; [5])?
The value was −1.6%.

And the “DPMs (AVG)” value (human sebocytes; [6])?
Its value is 3181.1 DPMs.

What about the “% Reduction” value (human sebocytes; [6]) of the same compound?
The value was 5.6%.

With `O=C1O[C@H]([C@@H](O)CO)C(O)=C1O` [Vitamine C, Ascorbic acid] as the compound, how does the “Mean A-B (Mean Difference)” value (MelanoDerm MEL-300; Ascorbic acid 285 micro-molar) read?
Its value is −3.97.

What about the “Pigmentation Reduction Magnet % South Pole (B)” value (MelanoDerm MEL-300; Ascorbic acid 285 micro-molar) of the same compound?
Its value is −6.18% and −6.34% and −4.55%.

What about the “Pigmentation Reduction % No Magnet (A)” value (MelanoDerm MEL-300; Ascorbic acid 285 micro-molar) of the same compound?
Its value is −4.21% and −2.65% and 1.7%.

And the “effect of South pole magnetism” value (MelanoDerm MEL-300)?
The value was “enhances”.

For `COC(=O)[C@@H]1[C@H]2C[C@H]3c4[nH]c5ccccc5c4CCN3C[C@@H]2CC[C@@H]1O` [Yohimbine], which “effect of South pole magnetism” value (MelanoDerm MEL-300) is on record?
The value was “enhances”.

What about the “Mean A-B (Mean Difference)” value (MelanoDerm MEL-300; Yohimbine 25 micro-molar) of the same compound?
The value was −3.27.

And the “Pigmentation Reduction Magnet % South Pole (B)” value (MelanoDerm MEL-300; Yohimbine 25 micro-molar)?
Its value is −2.55% and −8.08% and −6.76%.

And the “Pigmentation Reduction % No Magnet (A)” value (MelanoDerm MEL-300; Yohimbine 25 micro-molar)?
The value was 1.85% and −5.63% and −3.8%.

Which results are given for iso-tridecylsalicylate [TDS]?
DPMs (AVG) (human sebocytes; [7]): 2913.0 DPMs; % Reduction (human sebocytes; [7]): 36.3%; DPMs (AVG) (human sebocytes; [8]): 3367.8 DPMs; % Reduction (human sebocytes; [8]): 23.6%; DPMs (AVG) (human sebocytes; [9]): 3543.9 DPMs; % Reduction (human sebocytes; [9]): 4.9%; DPMs (AVG) (human sebocytes; [10]): 3040.0 DPMs; % Reduction (human sebocytes; [10]): 14.7%; DPMs (AVG) (human sebocytes; [11]): 2677.4 DPMs; % Reduction (human sebocytes; [11]): 20.5%
